Each structure is given as a SMILES string. Values joined by “and” are separate entries in the source; they are usually repeats but may differ in a detail not shown here. Identical values can stand only once.

Holding throughout (experiment): greenhouse pre-emergence herbicidal test
Common to all, as to type: in vivo

One assay has as its system Alopercurus myosuroides. The method, boiled down: (§1)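 Aqueous suspensions or emulsions sprayed immediately after sowing onto loamy sand (~3.0% humus), pots then hooded until rooting. Plants kept at 10–25 °C or 20–35 °C depending on species for 2–4 weeks. Damage scored 0 (none) to 100 (no emergence or complete destruction of aerial parts).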
A further assay concerns Abutilon theophrasti. In short, it runs like this:
as §1

The next assay relates to Echinocloa crus-galli. The method, boiled down:
(§2)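 Seeds sown per species; compounds suspended or emulsified in water and sprayed directly after sowing, pots irrigated and covered with transparent hoods until rooting. Evaluated over 2 to 4 weeks on a 0–100 scale (100 = no emergence or complete destruction of aerial parts, 0 = normal growth).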

For another assay, the system named is Amaranthus retroflexus. The method, boiled down:
as §2

The subject of another assay is Setaria faberi. In short, it runs like this:
as §2

In the next assay the test system is Digitaria sanguinalis. The method, boiled down: as §1
The test system of the next assay is Lolium multiflorum. The following applies: 62 g/ha. In short, it runs like this: as §1

In the case of `COc1c(F)cc(F)c(C(F)(F)F)c1Nc1nc(N)nc(C(C)(C)F)n1` [Example 19], the herbicidal activity in the assay on Alopercurus myosuroides (62 g/ha), with Abutilon theophrasti (62.5 g/ha), in the assay on Echinocloa crus-galli (62 g/ha), in the assay with Echinocloa crus-galli (62.5 g/ha), in the assay on Amaranthus retroflexus (62.5 g/ha) and in the assay with Setaria faberi (62 g/ha) was 100% in each case.

Regarding `COc1c(F)cc(C)c(C)c1Nc1nc(N)nc(C(C)(C)F)n1` [Example 54], the herbicidal activity in the assay on Alopercurus myosuroides (62.5 g/ha), with Abutilon theophrasti (62 g/ha), in the assay with Abutilon theophrasti (62.5 g/ha), in the assay on Echinocloa crus-galli (62 g/ha), with Echinocloa crus-galli (62.5 g/ha) and in the assay on Amaranthus retroflexus (62 g/ha) was 100% in each case.

Turning to `COc1c(F)cc(F)c(C)c1Nc1nc(N)nc(C(C)(C)F)n1` [Example 8], the herbicidal activity with Digitaria sanguinalis (32 g/ha), in the assay with Abutilon theophrasti (32 g/ha), in the assay with Abutilon theophrasti (125 g/ha), in the assay on Echinocloa crus-galli (125 g/ha), in the assay with Amaranthus retroflexus (32 g/ha) and in the assay with Setaria faberi (125 g/ha) was 100% throughout.

`COc1c(Cl)ccc(Cl)c1Nc1nc(N)nc(C(C)(C)F)n1` [Example 20]: the herbicidal activity with Alopercurus myosuroides (62 g/ha), in the assay on Abutilon theophrasti (62.5 g/ha), in the assay on Echinocloa crus-galli (62 g/ha), with Echinocloa crus-galli (62.5 g/ha), with Amaranthus retroflexus (62.5 g/ha) and with Setaria faberi (62 g/ha) was 100% throughout.

Consider `COc1c(Br)cc(Cl)c(C)c1Nc1nc(N)nc(C(C)(F)F)n1` [Example 97], for which the herbicidal activity came to 70% in the assay on Alopercurus myosuroides (62 g/ha), 85% in the assay on Amaranthus retroflexus (62 g/ha) and 85% in the assay on Setaria faberi (62 g/ha).

Consider `COc1c(F)ccc(Cl)c1Nc1nc(N)nc(C2(F)CCCC2)n1` [Example 53], for which the herbicidal activity came out at 90% with Alopercurus myosuroides (62.5 g/ha); 100% with Abutilon theophrasti (62 g/ha); 100% with Echinocloa crus-galli (62 g/ha); 98% in the assay with Echinocloa crus-galli (62.5 g/ha); 100% in the assay on Amaranthus retroflexus (62 g/ha); 100% with Setaria faberi (62.5 g/ha).

Take `CC#CCOc1c(Br)cc(F)c(C)c1Nc1nc(N)nc(C(C)(C)F)n1` [Example 21]: the herbicidal activity in the assay with Alopercurus myosuroides (62 g/ha) is 100%; in the assay with Echinocloa crus-galli (62 g/ha), 100%; in the assay with Echinocloa crus-galli (62.5 g/ha) it was 100%; in the assay on Amaranthus retroflexus (62.5 g/ha) it was 95%; in the assay with Setaria faberi (62 g/ha), 100%; with Setaria faberi (62.5 g/ha) it was 100%.

Take `COc1c(Br)cc(C)c(C)c1Nc1nc(N)nc(C(C)(C)OC)n1` [Example 48]: the herbicidal activity with Lolium multiflorum was 98%; with Echinocloa crus-galli (31 g/ha), 70%; in the assay on Echinocloa crus-galli (62 g/ha), 90%; in the assay with Amaranthus retroflexus (31 g/ha), 100%; in the assay with Setaria faberi (31 g/ha) it was 100%; in the assay with Setaria faberi (62 g/ha) it was 80%.

`COc1c(F)cc(F)c(Br)c1Nc1nc(N)nc(C(C)(C)F)n1` [Example 13]: the herbicidal activity with Alopercurus myosuroides (62.5 g/ha), with Abutilon theophrasti (31 g/ha), in the assay on Echinocloa crus-galli (31 g/ha), in the assay on Echinocloa crus-galli (62.5 g/ha), with Amaranthus retroflexus (31 g/ha) and with Setaria faberi (62.5 g/ha) was 100% each time.

For the compound `CC#CCOc1c(Br)cc(F)c(Cl)c1Nc1nc(N)nc(C(C)(C)F)n1` [Example 32], the herbicidal activity in the assay on Alopercurus myosuroides (62 g/ha), in the assay with Abutilon theophrasti (62 g/ha), in the assay with Abutilon theophrasti (62.5 g/ha), in the assay with Echinocloa crus-galli (62.5 g/ha), with Amaranthus retroflexus (62.5 g/ha) and in the assay on Setaria faberi (62 g/ha) was 100% each time.

On to `COc1c(Cl)cc(Cl)c(C)c1Nc1nc(N)nc(C(F)(F)F)n1` [Example 33], for which the herbicidal activity in the assay with Alopercurus myosuroides (125 g/ha) is on record as 100%; in the assay with Abutilon theophrasti (62.5 g/ha) it was 100%; with Echinocloa crus-galli (62.5 g/ha), 98%; in the assay on Echinocloa crus-galli (125 g/ha) it was 100%; in the assay on Amaranthus retroflexus (62.5 g/ha), 100%; in the assay with Setaria faberi (125 g/ha), 100%.

Consider `COc1c(C)ccc(C)c1Nc1nc(N)nc(C(C)(C)F)n1` [Example 14], for which the herbicidal activity with Alopercurus myosuroides (125 g/ha) was determined as 98%; in the assay on Abutilon theophrasti (62 g/ha), 100%; in the assay on Echinocloa crus-galli (62 g/ha), 100%; with Echinocloa crus-galli (125 g/ha) it was 98%; with Amaranthus retroflexus (62 g/ha), 100%; with Setaria faberi (125 g/ha) it was 100%.

In the case of `COc1c(Cl)cc(Br)c(Cl)c1Nc1nc(N)nc(C(C)(C)F)n1` [Example 12], the herbicidal activity in the assay with Alopercurus myosuroides (250 g/ha), in the assay with Abutilon theophrasti (250 g/ha), in the assay with Echinocloa crus-galli (250 g/ha), in the assay on Amaranthus retroflexus (250 g/ha) and in the assay on Setaria faberi (250 g/ha) was 100% throughout.

For `COc1c(Cl)cc(Cl)c(Cl)c1Nc1nc(N)nc(C(C)(C)F)n1` [Example 2], the herbicidal activity with Digitaria sanguinalis (62.5 g/ha), in the assay on Abutilon theophrasti (62.5 g/ha), in the assay on Echinocloa crus-galli (62.5 g/ha), with Echinocloa crus-galli (250 g/ha), in the assay on Amaranthus retroflexus (250 g/ha) and with Setaria faberi (250 g/ha) was 100% in each case.

In the case of `COc1c(Cl)cc(F)c(Br)c1Nc1nc(N)nc(C(C)(C)F)n1` [Example 11], the herbicidal activity in the assay with Alopercurus myosuroides (250 g/ha), with Digitaria sanguinalis (32 g/ha), with Abutilon theophrasti (32 g/ha), with Echinocloa crus-galli (250 g/ha), with Amaranthus retroflexus (32 g/ha) and in the assay on Setaria faberi (250 g/ha) was 100% each time.

With `COc1c(Br)cc(Cl)c(C)c1Nc1nc(N)nc(C(C)(F)CCl)n1` (racemic) [Example 98], the herbicidal activity in the assay with Alopercurus myosuroides (62 g/ha), in the assay with Amaranthus retroflexus (62 g/ha) and with Setaria faberi (62 g/ha) was 100% in each case.

For `CC#CCOc1c(F)cc(Br)c(Cl)c1Nc1nc(N)nc(C(C)(C)F)n1` [Example 59], the herbicidal activity in the assay on Alopercurus myosuroides (62 g/ha) amounted to 95%; with Abutilon theophrasti (62.5 g/ha), 100%; with Echinocloa crus-galli (62.5 g/ha), 95%; in the assay with Amaranthus retroflexus (62 g/ha) it was 100%; in the assay on Setaria faberi (62 g/ha), 100%; with Setaria faberi (62.5 g/ha) it was 100%.

Take `COc1c(F)cc(Cl)c(C)c1Nc1nc(N)nc(C(C)(C)F)n1` [Example 7]: the herbicidal activity in the assay on Digitaria sanguinalis (32 g/ha), in the assay on Abutilon theophrasti (32 g/ha), with Abutilon theophrasti (125 g/ha), with Echinocloa crus-galli (125 g/ha), in the assay with Amaranthus retroflexus (32 g/ha) and in the assay on Setaria faberi (125 g/ha) was 100% throughout.

On to `COc1c(Cl)cc(Br)c(C)c1Nc1nc(N)nc(C2(F)CCCC2)n1` [Example 61], for which the herbicidal activity in the assay with Alopercurus myosuroides (62 g/ha) worked out at 75%; in the assay on Abutilon theophrasti (31 g/ha) it was 100%; in the assay on Echinocloa crus-galli (31 g/ha), 100%; with Echinocloa crus-galli (62 g/ha), 70%; in the assay with Amaranthus retroflexus (31 g/ha), 100%; with Setaria faberi (62 g/ha) it was 85%.

As for `COc1c(F)ccc(Br)c1Nc1nc(N)nc(C(C)(C)F)n1` [Example 3, N4-(6-bromo-3-fluoro-2-methoxy-phenyl)-6-(1-fluoro-1-methyl-ethyl)-1,3,5-triazine-2,4-diamine], the herbicidal activity with Digitaria sanguinalis (62.5 g/ha), in the assay on Abutilon theophrasti (62.5 g/ha), in the assay with Abutilon theophrasti (250 g/ha), with Echinocloa crus-galli (62.5 g/ha), in the assay with Amaranthus retroflexus (250 g/ha) and in the assay on Setaria faberi (250 g/ha) was 100% each time.

With `COc1c(F)cc(Br)c(C)c1Nc1nc(N)nc(C(C)(C)F)n1` [Example 5], the herbicidal activity with Digitaria sanguinalis (250 g/ha) is 100%; in the assay on Abutilon theophrasti (250 g/ha), 90%; in the assay on Echinocloa crus-galli (250 g/ha) it was 100% and 85%; in the assay with Amaranthus retroflexus (250 g/ha), 100%; in the assay with Setaria faberi (250 g/ha), 100%.

For the compound `COc1c(Cl)cc(F)c(Cl)c1Nc1nc(N)nc(C(C)(C)F)n1` [Example 10], the herbicidal activity with Digitaria sanguinalis (32 g/ha), in the assay on Abutilon theophrasti (32 g/ha), with Abutilon theophrasti (250 g/ha), in the assay on Amaranthus retroflexus (32 g/ha), in the assay with Amaranthus retroflexus (250 g/ha) and in the assay on Setaria faberi (250 g/ha) was 100% each time.

In the case of `COc1c(Br)ccc(Cl)c1Nc1nc(N)nc(C(C)(C)F)n1` [Example 4], the herbicidal activity with Digitaria sanguinalis (62.5 g/ha), in the assay with Abutilon theophrasti (62.5 g/ha), with Echinocloa crus-galli (62.5 g/ha), in the assay on Echinocloa crus-galli (250 g/ha), in the assay with Amaranthus retroflexus (250 g/ha) and in the assay with Setaria faberi (250 g/ha) was 100% throughout.

In the case of `COc1c(Br)cc(C)c(C)c1Nc1nc(N)nc(C2(F)CCCC2)n1` [Example 47], the herbicidal activity in the assay on Lolium multiflorum is recorded as 80%; in the assay with Echinocloa crus-galli (62.5 g/ha), 100%; in the assay with Amaranthus retroflexus (62.5 g/ha) it was 100%; in the assay with Setaria faberi (62 g/ha), 90%; in the assay on Setaria faberi (62.5 g/ha), 100%.

In the case of `COc1c(Cl)cc(F)c(C)c1Nc1nc(N)nc(C2(F)CC2)n1` [Example 92], the herbicidal activity with Alopercurus myosuroides (62.5 g/ha), with Abutilon theophrasti (62.5 g/ha), in the assay with Echinocloa crus-galli (62 g/ha), with Echinocloa crus-galli (62.5 g/ha), with Amaranthus retroflexus (62 g/ha) and with Setaria faberi (62 g/ha) was 100% throughout.

Regarding `COc1c(Cl)cc(C)c(Cl)c1Nc1nc(N)nc(C(C)(C)F)n1` [Example 63], the herbicidal activity with Alopercurus myosuroides (31 g/ha) is given as 80%; in the assay with Abutilon theophrasti (62 g/ha), 100%; with Echinocloa crus-galli (62 g/ha), 100%; in the assay on Amaranthus retroflexus (31 g/ha), 80%; with Amaranthus retroflexus (62 g/ha), 100%; in the assay on Setaria faberi (31 g/ha) it was 100%.

For the origin of these results see patent publication US20240150303A1, “DIAMINOTRIAZINE COMPOUNDS” (BASF SE, priority 2021, published 2024).
